Assay results published in ChEMBL document CHEMBL1201862, “PubChem BioAssay data set” (2004).
The source made the active and inactive calls.

Experiments:
[1] = viability of PTEN-deleted HCT116 cells – cell-based, HCT116 PTEN knockout, dose response (AID 1047); type: functional;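 also: HCT116 colon tumor cells with PTEN knocked out; cells exposed to compound for 60 hours before readout; potency for loss of cell viability measured by luminescence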
[2] = viability of HCT116 lacking mutant beta-catenin – cell-based, human colon tumor, dose response (AID 1045); type: functional;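 also: HCT116 colon tumor cells with beta catenin knocked out; cells exposed to compound for 60 hours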
[3] = luciferase reporter signal suppression in cells – H4 neuroglioma cells, luminescence, dose response (AID 1990); type: functional, cell-based
[4] = Luminescence Cell-Based Dose Response HTS to Identify Inhibitors of 5'UTR Stem-Loop Driven Prion Protein mRNA Translation in H4 Neuroglioblastoma Cells. [Related pubchem assays: 1827 (Project Summary), 1813 (Primary HTS)]; type: functional
[5] = alpha-synuclein stem-loop luciferase translation blockers – H4 neuroglioma cells, luminescence, confirmation (AID 1988); type: functional, cell-based
[6] = Trypanosoma cruzi growth suppression in host cells – NIH3T3 host cells, beta-gal luminescence, confirmation (AID 2044); type: functional, cell-based;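 also: intracellular parasites grown in NIH/3T3 mouse fibroblasts as host cells; luminescent beta-galactosidase reporter signal from transgenic T. cruzi replicating inside host cells; inhibitors lower the luminescence signal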
[7] = NIH3T3 cell viability loss – ATP luminescence, mouse fibroblasts, counter-screen, dose response (AID 2010); type: functional, cell-based;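 also: cells exposed to compound for about 90 hours before reading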
[8] = Luminescence Cell-Based Dose Retest to Confirm Inhibitors of Cancer Stem Cells. [Related pubchem assays (depositor defined):AID2717, AID2721]; type: functional; conditions: Homo sapiens
[9] = target: Cytochrome P450 2C19 (Homo sapiens, UniProt P33261); experiment: Cytochrome panel assay with activity outcomes. Panel member name: p450-cyp2c19 Compounds with AC50 equal or less than 10 uM are considered active; type: functional; conditions: read-out: AC50
Cytochrome P450 2C19, sequence (P33261 whole entry): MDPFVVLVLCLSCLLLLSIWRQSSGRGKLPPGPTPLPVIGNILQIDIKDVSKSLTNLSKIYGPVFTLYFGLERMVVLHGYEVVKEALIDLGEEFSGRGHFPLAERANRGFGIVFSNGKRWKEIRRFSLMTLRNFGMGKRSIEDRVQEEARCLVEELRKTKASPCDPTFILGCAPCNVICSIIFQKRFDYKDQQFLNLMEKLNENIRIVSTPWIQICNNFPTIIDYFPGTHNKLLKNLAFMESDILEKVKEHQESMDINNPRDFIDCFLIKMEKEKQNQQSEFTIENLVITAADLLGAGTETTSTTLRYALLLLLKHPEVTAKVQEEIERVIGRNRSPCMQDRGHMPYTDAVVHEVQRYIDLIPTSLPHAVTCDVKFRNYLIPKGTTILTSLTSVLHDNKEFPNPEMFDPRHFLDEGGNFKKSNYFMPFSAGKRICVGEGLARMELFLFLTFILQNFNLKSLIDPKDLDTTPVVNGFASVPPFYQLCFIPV

[10] = target: Cytochrome P450 3A4 (Homo sapiens, UniProt P08684);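 also: CYP3A4 tested as one member of a cytochrome P450 panel screen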
Cytochrome P450 3A4, sequence (P08684 whole entry): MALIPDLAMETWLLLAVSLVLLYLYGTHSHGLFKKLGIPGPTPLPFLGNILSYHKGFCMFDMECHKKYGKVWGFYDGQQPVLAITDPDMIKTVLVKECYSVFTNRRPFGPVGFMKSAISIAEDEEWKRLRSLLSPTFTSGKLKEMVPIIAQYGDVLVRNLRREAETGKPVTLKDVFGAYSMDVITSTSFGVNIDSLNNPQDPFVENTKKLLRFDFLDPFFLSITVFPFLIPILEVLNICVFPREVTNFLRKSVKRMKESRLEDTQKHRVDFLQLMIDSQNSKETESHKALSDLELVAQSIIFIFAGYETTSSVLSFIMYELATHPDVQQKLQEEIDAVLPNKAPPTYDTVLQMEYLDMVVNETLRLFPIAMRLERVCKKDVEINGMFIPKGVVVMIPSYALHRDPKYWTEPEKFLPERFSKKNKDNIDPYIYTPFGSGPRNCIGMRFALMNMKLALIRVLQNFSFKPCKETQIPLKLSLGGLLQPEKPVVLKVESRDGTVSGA

[11] = target: Cytochrome P450 2C9 (Homo sapiens, UniProt P11712)
Cytochrome P450 2C9, sequence (P11712 whole entry): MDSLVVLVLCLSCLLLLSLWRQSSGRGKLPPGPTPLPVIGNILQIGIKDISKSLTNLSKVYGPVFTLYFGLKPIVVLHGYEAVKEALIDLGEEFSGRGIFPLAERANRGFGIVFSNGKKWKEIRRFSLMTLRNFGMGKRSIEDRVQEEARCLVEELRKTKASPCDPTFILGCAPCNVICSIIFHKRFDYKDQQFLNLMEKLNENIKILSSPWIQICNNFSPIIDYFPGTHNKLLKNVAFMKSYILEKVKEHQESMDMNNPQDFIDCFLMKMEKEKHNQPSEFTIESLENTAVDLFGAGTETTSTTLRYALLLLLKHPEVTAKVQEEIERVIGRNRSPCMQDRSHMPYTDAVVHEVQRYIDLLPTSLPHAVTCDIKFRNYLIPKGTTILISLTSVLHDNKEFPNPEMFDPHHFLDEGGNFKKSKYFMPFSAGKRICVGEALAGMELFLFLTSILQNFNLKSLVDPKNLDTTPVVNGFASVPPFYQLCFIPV

[12] = target: T1, Corticotropin-releasing factor receptor 2/Corticotropin-releasing factor-binding protein (Homo sapiens, UniProt P24387+Q13324); experiment: activators of CRF receptor 2 with binding protein – uHTS hits, confirmation (AID 602473); type: functional; conditions: read-out: EC50_Mean
T1 sequence (Q13324 whole entry): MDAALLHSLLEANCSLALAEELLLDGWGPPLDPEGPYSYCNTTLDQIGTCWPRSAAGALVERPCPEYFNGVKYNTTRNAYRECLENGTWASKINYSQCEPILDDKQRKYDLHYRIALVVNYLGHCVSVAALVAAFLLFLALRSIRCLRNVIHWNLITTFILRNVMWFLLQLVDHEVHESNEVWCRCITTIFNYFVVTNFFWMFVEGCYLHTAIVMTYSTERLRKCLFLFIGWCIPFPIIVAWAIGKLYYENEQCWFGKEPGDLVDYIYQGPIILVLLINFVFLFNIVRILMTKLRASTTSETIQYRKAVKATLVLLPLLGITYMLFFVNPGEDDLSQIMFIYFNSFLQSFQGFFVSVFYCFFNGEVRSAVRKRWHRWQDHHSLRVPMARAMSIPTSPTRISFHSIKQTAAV
T1 sequence (P24387 whole entry): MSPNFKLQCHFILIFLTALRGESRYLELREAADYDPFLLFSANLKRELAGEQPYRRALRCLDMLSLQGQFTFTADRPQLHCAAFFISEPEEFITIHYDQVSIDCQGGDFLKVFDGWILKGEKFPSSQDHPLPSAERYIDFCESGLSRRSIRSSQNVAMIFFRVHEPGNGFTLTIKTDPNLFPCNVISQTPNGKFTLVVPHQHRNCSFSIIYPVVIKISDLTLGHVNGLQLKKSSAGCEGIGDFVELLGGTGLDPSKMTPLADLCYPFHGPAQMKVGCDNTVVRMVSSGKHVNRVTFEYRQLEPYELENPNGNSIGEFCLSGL

[13] = tested on: Streptococcus sp. 'group A'; experiment: Streptococcus pyogenes SK(-)GAS viability under kanamycin – luminescence, BacTiterGlo, confirmation, counter-screen for streptokinase expression inhibitor project, dose response (AID 1900); type: functional, organism-based
[14] = target: T2, Streptokinase A (Streptococcus pyogenes serotype M1, UniProt P10520); experiment: viability-normalized secreted streptokinase activity reduction – plasminogen activation absorbance, OD405, dose response (AID 1914); type: functional, Streptococcus pyogenes M1 GAS;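 also: secreted streptokinase activity via plasminogen activation per viability signal from cell pellet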
T2 sequence (P10520 whole entry): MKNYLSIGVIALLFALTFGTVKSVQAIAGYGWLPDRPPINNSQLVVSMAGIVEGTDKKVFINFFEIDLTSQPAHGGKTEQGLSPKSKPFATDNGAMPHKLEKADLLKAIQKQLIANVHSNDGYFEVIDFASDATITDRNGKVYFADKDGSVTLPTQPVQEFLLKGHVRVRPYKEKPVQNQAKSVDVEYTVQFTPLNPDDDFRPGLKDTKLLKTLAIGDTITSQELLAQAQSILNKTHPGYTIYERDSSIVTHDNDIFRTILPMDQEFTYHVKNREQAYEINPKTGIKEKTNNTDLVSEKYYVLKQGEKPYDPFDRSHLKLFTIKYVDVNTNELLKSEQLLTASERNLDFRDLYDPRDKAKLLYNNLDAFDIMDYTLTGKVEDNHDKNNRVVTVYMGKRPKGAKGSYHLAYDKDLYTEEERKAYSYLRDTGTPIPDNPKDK

[15] = tested on: Streptococcus; experiment: GAS UMAA2166 growth inhibition – luminescence, BacTiterGlo, counter-screen for streptokinase expression inhibitor project, dose response (AID 1915); type: functional, organism-based;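 also: potency for reduction of bacterial viability or growth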
[16] = target: Cytochrome P450 2D6 (Homo sapiens, UniProt P10635);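 also: CYP2D6 member of a cytochrome P450 panel assay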
Cytochrome P450 2D6, sequence (P10635 whole entry): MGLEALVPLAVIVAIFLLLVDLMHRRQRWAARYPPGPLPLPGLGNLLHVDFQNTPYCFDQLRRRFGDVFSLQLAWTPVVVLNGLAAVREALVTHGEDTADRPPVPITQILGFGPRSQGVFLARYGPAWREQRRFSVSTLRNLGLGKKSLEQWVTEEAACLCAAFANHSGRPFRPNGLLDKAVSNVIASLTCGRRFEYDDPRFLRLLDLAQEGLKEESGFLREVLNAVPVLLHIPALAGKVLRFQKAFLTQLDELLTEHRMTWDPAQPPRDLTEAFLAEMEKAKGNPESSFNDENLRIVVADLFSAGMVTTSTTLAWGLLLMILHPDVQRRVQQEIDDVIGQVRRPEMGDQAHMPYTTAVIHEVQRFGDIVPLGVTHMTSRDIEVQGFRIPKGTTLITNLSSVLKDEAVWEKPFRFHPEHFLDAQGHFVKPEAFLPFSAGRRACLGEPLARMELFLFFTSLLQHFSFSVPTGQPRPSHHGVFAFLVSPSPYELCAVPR

For Cn1c(C(=O)NCCCN2CCN(c3ccccc3F)CC2)cc2c(=O)n(C)c3ccccc3c21, the EC50 [1] was 17.2 µM (active) and the EC50 [2] was 17.7 µM (active).

In the case of CC(C)Nc1nc(N=C(N)S)nc(NC(C)C)n1, the EC50 [3] is reported as > 120 µM (not active), the EC50 [4] is reported as > 120 µM (not active) and the EC50 [5] is reported as > 120 µM (not active).

With CCc1cc2c(SCC(=O)Nc3ccc(Cl)cn3)ncnc2s1 the EC50 [1] was 31.9 µM (active) and the EC50 [2] was 71.3 µM (active).

For CC1CN(CCCCOc2cccc(Oc3ccccc3)c2)CC(C)O1 (stereo unspecified), the EC50 [6] was 1.01 µM (active), the EC50 [7] was > 60 µM (inconclusive) and the AC50 [8] was 13.3 µM (active).

For Cc1ccc2[nH]c(SCC3CCCCO3)nc2c1 (stereo unspecified), the EC50 [4] was > 60 µM (inconclusive).

For O=C(NCCc1ccccc1)c1cc(-c2ccccc2)c(N2CCOCC2)s1, the AC50 [8] was 3.48 µM (active).

For Brc1ccccc1OCCOCCOc1cccc2cccnc12, the AC50 [9] was 3.16 µM (inconclusive), the AC50 [10] was 39.8 µM (inconclusive) and the AC50 [11] was 11.2 µM (inconclusive).

In the case of CCc1ccc2c(c1)[C@H]1OCC[C@H]1[C@@H](c1cccs1)N2, the AC50 [8] is reported as 2.97 µM (active).

For Cc1ccc2oc(=O)c(/C=C(\O)c3sc(C)nc3C)nc2c1, the EC50 [12] was 7.67 µM (active).

With CCOc1ccc(OCc2cccc(C(=O)Nc3ccc(CN4CCCCC4)cc3)c2)cc1 the AC50 [8] was 5.46 µM (active).

With CCOc1cc(NC(=O)c2ccccc2C)c(OCC)cc1NC(=O)C1=Cc2ccccc2OC1 the EC50 [3] was > 120 µM (not active), the EC50 [4] was 18.7 µM (active) and the EC50 [5] was 9.61 µM (active).

With CC1(C)CC(=O)C(C2C3=C(CC(C)(C)CC3=O)Oc3c(Br)cc(Br)cc32)=C(O)C1 (stereo unspecified) the EC50 [13] was 4.66 µM (active), the EC50 [14] was 24.8 µM (active) and the EC50 [15] was 12.2 µM (active). For the same compound, the EC50 [12] was 10.3 µM (active).

For CCCn1c(=O)c(C(=O)NNC(=O)c2ccc(Cl)cc2Cl)c(O)c2ccccc21, the EC50 [12] was 4.01 µM (active).

With CCOC(=O)/C(=C/C=C1\Sc2ccccc2N1CC)C(C)=O the EC50 [12] was 11.5 µM (active).

In the case of CC/C(=C\C1CCCCC1)C(NP(=O)(c1ccccc1)c1ccccc1)c1ccccc1 (stereo unspecified), the EC50 [13] is reported as 1.68 µM (active), the EC50 [15] is reported as 2.26 µM (active) and the AC50 [8] is reported as 2.58 µM (active).

With O=C(CSc1nnc(-c2ccc3c(c2)OCO3)o1)Nc1ncc(Cl)cc1Cl the EC50 [1] was 11.4 µM (active) and the EC50 [2] was 9.18 µM (active).

For O=C(Nc1ccc(NC(=O)c2sc3ccccc3c2Cl)cc1)c1ccco1, the EC50 [1] was 9.27 µM (active) and the EC50 [2] was 9.19 µM (active).

For Cc1ccc(C)c2sc(NC(=O)c3ccc(N4C(=O)CCC4=O)cc3)nc12, the EC50 [12] was > 53 µM (inactive).

For COc1ccc(CCNC(=O)CCN2C(=O)COc3ccc(C)cc32)cc1OC, the AC50 [16] was 39.8 µM (inconclusive) and the AC50 [11] was 28.2 µM (inconclusive).

In the case of COc1ccc(CNc2ccnc(-c3c(C)noc3C)n2)c(OC)c1, the AC50 [16] is reported as 39.8 µM (inconclusive) and the AC50 [11] is reported as 1 µM (inconclusive).

For COc1ccc(F)cc1CN1CCN(c2ncnc3scc(-c4ccccc4)c23)CC1, the EC50 [3] was 15.8 µM (active), the EC50 [4] was 23.9 µM (active) and the EC50 [5] was 15.6 µM (active).

For CCOc1ccc(NC(=O)c2cn(CC(C)C)c(=O)c3c2c2ccccc2n3C)cc1, the EC50 [1] was 10 µM (active) and the EC50 [2] was 13.4 µM (active).

With CC(C)(C)c1ccc(/C=C/C(=O)c2ccc(NC3=NCCCS3)cc2)cc1 the EC50 [6] was 2.08 µM (active), the EC50 [1] was 6.9 µM (active) and the EC50 [7] was > 60 µM (not active). For the same compound, the EC50 [2] was 4.92 µM (active) and the AC50 [8] was 2.63 µM (active).

With Cc1ccc(NC(=O)c2cc([N+](=O)[O-])ccc2NCc2cccnc2)cc1Cl the EC50 [6] was 1.82 µM (active), the EC50 [7] was > 60 µM (not active) and the AC50 [16] was 0.794 µM (inconclusive). For the same compound, the AC50 [11] was 0.251 µM (inconclusive).

For Cc1ccc(S(=O)(=O)N2CCOC23CCN(C(=O)c2ccc(Cl)cc2Cl)CC3)cc1, the EC50 [3] was > 120 µM (not active), the EC50 [4] was 17.7 µM (active) and the EC50 [5] was 13.8 µM (active).

In the case of CCc1cc2ccc(C)cc2nc1SCC(=O)c1ccc(NC(C)=O)cc1, the AC50 [8] is reported as 3.68 µM (active).

For C=CCc1cccc(CNc2nc3ccccc3n2CCC)c1O, the AC50 [8] was 7.58 µM (active).

In the case of Cc1ccc(N2CC(C(=O)Nc3cc(C)on3)CC2=O)cc1 (stereo unspecified), the AC50 [10] is reported as 22.4 µM (inconclusive) and the AC50 [11] is reported as 11.2 µM (inconclusive).

With COC(=O)c1sccc1NC(=O)c1cc(-c2cccc(C)c2)nc2ccccc12 the EC50 [1] was 6.74 µM (active) and the EC50 [2] was 8.24 µM (active).

With Clc1ccc(CN(Cc2ccccc2)C(c2cccs2)c2nnnn2C2CCCC2)cc1 (stereo unspecified) the EC50 [1] was 53.2 µM (active) and the EC50 [2] was 32.8 µM (active).

In the case of COc1ccc(C(C(=O)NC2CCCCC2)N(C(=O)CCCC(=O)Nc2ccccn2)c2ccc3c(c2)OCCO3)cc1 (stereo unspecified), the AC50 [9] is reported as 7.94 µM (inconclusive) and the AC50 [11] is reported as 14.1 µM (inconclusive).
